Measured values reported in patent publication US9120812B2, “Pyrimidooxazocine derivatives as mTOR-inhibitors” (SANOFI, priority 2012, dated 2015).

Key:
[1] = target: mTOR (human recombinant aa mTOR 1360-2549) (Homo sapiens (Human), UniProt P42345); assay: mTOR enzymatic test by TR-FRET (phosphorylation of GFP-4EBP1); type: biochemical
How it was run: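 TR-FRET detection of GFP-4EBP1 phosphorylation by a terbium-labelled anti-phospho-Thr46 antibody. Kinase reaction ran 30 min at room temperature, was quenched with EDTA (10 mM final) plus Tb-antibody (2 nM final) and left 60 min. Emission at 520 and 490 nm after 340 nm excitation, reported as the 520/490 ratio.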

PI3Kα (p110α/p85α) = PI3Kα (p110α/p85α) (Homo sapiens (Human), UniProt P42336); assay: PI3Kα enzymatic test by measuring the consumption of ATP; type: biochemical
PI3Kα (p110α/p85α), sequence (P42336 whole entry): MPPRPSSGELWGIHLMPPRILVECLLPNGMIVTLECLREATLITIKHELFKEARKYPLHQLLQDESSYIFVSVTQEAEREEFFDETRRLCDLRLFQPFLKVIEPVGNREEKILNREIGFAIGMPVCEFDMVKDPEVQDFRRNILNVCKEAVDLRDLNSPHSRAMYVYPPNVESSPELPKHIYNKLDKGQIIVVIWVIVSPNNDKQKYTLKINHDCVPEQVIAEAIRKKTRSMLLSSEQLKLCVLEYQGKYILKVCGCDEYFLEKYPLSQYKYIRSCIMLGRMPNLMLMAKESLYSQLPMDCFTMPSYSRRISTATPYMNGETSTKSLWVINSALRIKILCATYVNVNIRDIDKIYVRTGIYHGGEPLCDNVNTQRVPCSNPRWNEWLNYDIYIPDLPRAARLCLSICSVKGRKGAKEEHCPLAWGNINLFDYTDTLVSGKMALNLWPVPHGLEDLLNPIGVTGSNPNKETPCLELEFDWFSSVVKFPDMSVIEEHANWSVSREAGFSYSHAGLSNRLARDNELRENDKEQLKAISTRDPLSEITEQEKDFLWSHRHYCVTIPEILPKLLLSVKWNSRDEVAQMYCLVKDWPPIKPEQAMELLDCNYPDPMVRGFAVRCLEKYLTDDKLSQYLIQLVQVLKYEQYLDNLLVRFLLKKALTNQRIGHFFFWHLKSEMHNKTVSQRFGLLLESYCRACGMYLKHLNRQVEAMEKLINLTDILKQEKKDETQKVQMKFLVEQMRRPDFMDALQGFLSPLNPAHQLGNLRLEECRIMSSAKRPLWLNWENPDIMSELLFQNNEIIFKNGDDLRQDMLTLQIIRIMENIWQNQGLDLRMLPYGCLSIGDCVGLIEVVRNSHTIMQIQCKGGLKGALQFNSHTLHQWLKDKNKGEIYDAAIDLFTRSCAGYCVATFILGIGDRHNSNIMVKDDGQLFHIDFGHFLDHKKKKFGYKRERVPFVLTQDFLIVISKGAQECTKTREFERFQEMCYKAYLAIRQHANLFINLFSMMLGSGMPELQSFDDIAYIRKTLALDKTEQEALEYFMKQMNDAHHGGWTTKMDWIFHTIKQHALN
PI3Kα (p110α/p85α), sequence (P27986 whole entry partner): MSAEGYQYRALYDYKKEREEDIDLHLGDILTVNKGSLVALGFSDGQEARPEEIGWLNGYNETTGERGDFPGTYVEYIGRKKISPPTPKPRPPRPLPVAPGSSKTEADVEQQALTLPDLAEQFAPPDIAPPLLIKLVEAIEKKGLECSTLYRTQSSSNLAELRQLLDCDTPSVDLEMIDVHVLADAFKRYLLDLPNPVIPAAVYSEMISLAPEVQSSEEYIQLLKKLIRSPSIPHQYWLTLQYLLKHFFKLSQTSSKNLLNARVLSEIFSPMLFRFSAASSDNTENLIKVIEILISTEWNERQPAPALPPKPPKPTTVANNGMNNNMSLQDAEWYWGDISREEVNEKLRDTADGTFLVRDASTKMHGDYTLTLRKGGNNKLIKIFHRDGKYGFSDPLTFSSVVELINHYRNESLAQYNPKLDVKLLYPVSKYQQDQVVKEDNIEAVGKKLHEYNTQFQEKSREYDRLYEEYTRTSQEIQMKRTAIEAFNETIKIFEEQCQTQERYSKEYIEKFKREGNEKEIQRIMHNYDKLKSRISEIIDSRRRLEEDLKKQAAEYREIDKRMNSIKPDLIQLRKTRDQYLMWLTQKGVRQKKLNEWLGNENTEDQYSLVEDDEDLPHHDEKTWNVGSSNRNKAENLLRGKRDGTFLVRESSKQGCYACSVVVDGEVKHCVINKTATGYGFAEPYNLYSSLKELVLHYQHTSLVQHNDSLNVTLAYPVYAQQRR
How it was run: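 p110α/p85α (1.7 μg/ml) with 50 μM PIP2 and 2 μM ATP in pH 7.5 Tris buffer with EGTA, MgCl2, Chaps, DTT; reaction 90 min. Remaining ATP measured by luciferin/luciferase luminescence; IC50 from threefold serial dilutions spanning at least 10 000-fold.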

U87MG tumour cells = assay: Test of in vitro proliferation of U87MG tumour cells; type: cell-based; conditions: Homo sapiens, U-87 MG, 72 h, U87MG cells, 72 hours; read-out: U87 Cell Proliferation IC50
Experimental: Model 4: Test of in vitro Proliferation of U87MG Tumour Cells.
The cell growth is determined with the reagent CellTiter 96 AQueous One Solution Cell Proliferation Assay from Promega (Cat. No. G3581).

Akt-pS473 in U87MG cells = conditions: Homo sapiens, U-87 MG, read-out: U87 Akt-pS473 % Inhibition or IC50, nM (IC50), U87MG cells
Experimental: Model 3: Cellular Test of Phosphorylation of the Epitope S473 of the Akt Protein on the U87MG Line Via an ELISA Test
An electrochemiluminescence signal is generated by a ruthenium-labelled anti-rabbit antibody.
After culturing for 16-20 hours (the cells are at 100% of confluence) at 37° C. under 5% CO2, 1 μl of the chemical compounds in 100% DMSO (1% DMSO final concentration on the cells) is added. The cells are incubated with the compounds for 3 hours at 37° C. under 5% CO2.
The free sites are blocked with 150 μl/well of a buffer of 50 mM Tris pH 7.5, 0.15 M NaCl, 0.02% Tween 20, 3% BSA with stirring at 450 rpm for 1 hour at room temperature, followed by a step of washing with 3×300 μl of a buffer of 50 mM Tris pH 7.5, 0.15 M NaCl, 0.02% Tween 20.
15 μl of cell lysate are mixed with 15 μl of a 50 mM buffer of Tris pH 7.5, 0.15 M NaCl, 0.02% Tween 20, 1% BSA in a precoated ELISA plate (see above), and incubated for 1 hour at room temperature with stirring, followed by a step of washing with 3×300 μl of a buffer of 50 mM Tris pH 7.5, 0.15 M NaCl, 0.02% Tween 20. The pS473 epitope of Akt is detected with a rabbit polyclonal antibody (Cell Signaling, SC9271), diluted 100-fold in 50 mM Tris pH 7.5, 0.15 M NaCl, 0.02% Tween 20, 1% BSA, 25 μl/well (incubation for 1 hour at room temperature with stirring at 450 rpm).
After washing (see above), revelation is performed with a ruthenium-labelled anti-rabbit antibody (MSD R32AB1), diluted 3000-fold in a 50 mM buffer of Tris pH 7.5, 0.15 M NaCl, 0.02% Tween 20, 1% BSA, 25 μl/well, followed by incubation for 1 hour at room temperature with stirring at 450 rpm, and the plates are covered with aluminium.
After a further washing step, the plates are emptied and 150 μl of MSD Read Buffer T diluted fourfold with water are added. The electrochemiluminescence is measured on the MSD Sector Imager 6000.

mTOR (human recombinant aa mTOR 1360-2549), sequence (P42345 1360-2549): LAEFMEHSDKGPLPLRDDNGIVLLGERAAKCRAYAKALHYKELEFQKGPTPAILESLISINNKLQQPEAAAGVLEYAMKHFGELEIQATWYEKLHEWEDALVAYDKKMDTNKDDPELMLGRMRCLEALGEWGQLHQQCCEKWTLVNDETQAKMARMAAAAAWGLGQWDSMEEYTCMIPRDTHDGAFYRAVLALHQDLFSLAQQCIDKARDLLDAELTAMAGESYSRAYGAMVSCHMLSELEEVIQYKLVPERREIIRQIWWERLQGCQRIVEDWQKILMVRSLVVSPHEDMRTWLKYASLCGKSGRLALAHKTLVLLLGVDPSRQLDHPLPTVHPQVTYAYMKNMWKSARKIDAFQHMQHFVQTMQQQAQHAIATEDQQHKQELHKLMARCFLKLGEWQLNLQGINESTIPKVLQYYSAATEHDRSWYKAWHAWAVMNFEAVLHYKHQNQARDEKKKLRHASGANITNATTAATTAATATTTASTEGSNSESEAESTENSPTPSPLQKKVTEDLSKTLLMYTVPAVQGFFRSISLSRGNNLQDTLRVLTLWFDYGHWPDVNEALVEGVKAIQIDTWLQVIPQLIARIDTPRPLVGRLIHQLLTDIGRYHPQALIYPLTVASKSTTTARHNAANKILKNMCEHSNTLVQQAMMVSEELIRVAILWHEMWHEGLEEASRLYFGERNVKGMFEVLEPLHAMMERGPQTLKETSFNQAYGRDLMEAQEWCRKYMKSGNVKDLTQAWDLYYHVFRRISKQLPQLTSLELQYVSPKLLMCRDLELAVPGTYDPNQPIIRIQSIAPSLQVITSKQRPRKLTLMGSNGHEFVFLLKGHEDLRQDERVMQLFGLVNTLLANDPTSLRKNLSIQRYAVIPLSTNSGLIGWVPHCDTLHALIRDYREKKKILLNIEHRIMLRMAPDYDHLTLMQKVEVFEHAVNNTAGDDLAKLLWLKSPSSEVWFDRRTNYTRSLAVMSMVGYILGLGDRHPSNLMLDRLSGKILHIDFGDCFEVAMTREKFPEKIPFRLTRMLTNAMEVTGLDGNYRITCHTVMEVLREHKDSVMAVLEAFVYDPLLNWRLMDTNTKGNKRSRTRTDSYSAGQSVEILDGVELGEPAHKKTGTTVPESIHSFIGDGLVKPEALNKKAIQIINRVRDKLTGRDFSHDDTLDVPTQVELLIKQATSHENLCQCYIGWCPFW

In the case of CCN1CC(C)(C)Oc2nc(N3CC4CCC(C3)O4)nc(-c3ccc(NC(=O)Nc4cc(OC)c(F)cc4F)cc3)c2C1=O [Example 155, 1-(2,4-Difluoro-5-methoxyphenyl)-3-{4-[6-ethyl-8,8-dimethyl-2-(8-oxa-3-azabicyclo[3.2.1]oct-3-yl)-5-oxo-5,6,7,8-tetrahydro-9-oxa-1,3,6-triazabenzocyclohepten-4-yl]phenyl}urea], the IC50 [1] is reported as 0.079 µM, the “PI3Ka IC50” value (PI3Kα (p110α/p85α)) is reported as greater than 10 µM and the IC50 (U87MG tumour cells) is reported as 0.142 µM. It also gave an IC50 (Akt-pS473 in U87MG cells) of 59 nM.

With CCN1CC(C)(C)Oc2nc(N3CCOC[C@@H]3C)nc(-c3ccc(NC(=O)Nc4cccc(OC(F)F)c4)cc3)c2C1=O [Example 204, 1-(3-Difluoromethoxyphenyl)-3-{4-[6-ethyl-8,8-dimethyl-2-((S)-3-methylmorpholin-4-yl)-5-oxo-5,6,7,8-tetrahydro-9-oxa-1,3,6-triazabenzocyclohepten-4-yl]phenyl}urea] the IC50 [1] was 0.061 µM, the “PI3Ka IC50” value (PI3Kα (p110α/p85α)) was 0.468 µM and the IC50 (U87MG tumour cells) was 0.074 µM. For the same compound, the IC50 (Akt-pS473 in U87MG cells) was 18 nM.

CCN1CC(C)(C)Oc2nc(N3CC4CCC(C3)O4)nc(-c3ccc(NC(=O)Nc4ccnc(N(C)C)c4)c(F)c3)c2C1=O [Example 78, 1-(2-Dimethylaminopyridin-4-yl)-3-{4-[6-ethyl-8,8-dimethyl-2-(8-oxa-3-azabicyclo[3.2.1]oct-3-yl)-5-oxo-5,6,7,8-tetrahydro-9-oxa-1,3,6-triazabenzocyclohepten-4-yl]-2-fluorophenyl}urea] was tested, and the IC50 [1] was 0.09 µM, the “PI3Ka IC50” value (PI3Kα (p110α/p85α)) was 6.26 µM and the IC50 (U87MG tumour cells) was 0.083 µM. It also gave an IC50 (Akt-pS473 in U87MG cells) of 28 nM.

In the case of CCN1CC(C)(C)Oc2nc(N3CCOC[C@@H]3C)nc(-c3ccc(NC(=O)Nc4cccc(OC(F)F)c4)c(F)c3)c2C1=O [Example 212, 1-(3-Difluoromethoxyphenyl)-3-{4-[6-ethyl-8,8-dimethyl-2-((S)-3-methylmorpholin-4-yl)-5-oxo-5,6,7,8-tetrahydro-9-oxa-1,3,6-triazabenzocyclohepten-4-yl]-2-fluorophenyl}urea], the IC50 [1] is reported as 0.141 µM, the “PI3Ka IC50” value (PI3Kα (p110α/p85α)) is reported as 1.54 µM and the IC50 (U87MG tumour cells) is reported as 0.071 µM. For the same compound, the IC50 (Akt-pS473 in U87MG cells) was 8 nM.

With CCN1CC(C)(C)Oc2nc(N3CCOC[C@@H]3C)nc(-c3ccc(NC(=O)Nc4ccccn4)cc3)c2C1=O [Example 221, 1-{4-[6-Ethyl-8,8-dimethyl-2-((S)-3-methylmorpholin-4-yl)-5-oxo-5,6,7,8-tetrahydro-9-oxa-1,3,6-triazabenzocyclohepten-4-yl]phenyl}-3-pyridin-2-ylurea] the IC50 [1] was 0.013 µM, the “PI3Ka IC50” value (PI3Kα (p110α/p85α)) was 0.372 µM and the IC50 (U87MG tumour cells) was 0.137 µM. The IC50 (Akt-pS473 in U87MG cells) was 11 nM.

For CCN1CC(C)(C)Oc2nc(N3CCOC[C@@H]3C)nc(-c3ccc(NC(=O)Nc4ccnc(C)c4)c(F)c3)c2C1=O [Example 199, 1-{4-[6-Ethyl-8,8-dimethyl-2-((S)-3-methylmorpholin-4-yl)-5-oxo-5,6,7,8-tetrahydro-9-oxa-1,3,6-triazabenzocyclohepten-4-yl]-2-fluorophenyl}-3-(2-methylpyridin-4-yl)urea], the IC50 [1] was 0.039 µM, the “PI3Ka IC50” value (PI3Kα (p110α/p85α)) was 0.174 µM and the IC50 (U87MG tumour cells) was 0.032 µM. The IC50 (Akt-pS473 in U87MG cells) was 10 nM.

For CCN1CC(C)(C)Oc2nc(N3C4CCC3COC4)nc(-c3ccc(NC(=O)Nc4cc(C)nc(C)c4)c(F)c3)c2C1=O [Example 241, 1-(2,6-Dimethylpyridin-4-yl)-3-{4-[6-ethyl-8,8-dimethyl-2-(3-oxa-8-azabicyclo[3.2.1]oct-8-yl)-5-oxo-5,6,7,8-tetrahydro-9-oxa-1,3,6-triazabenzocyclohepten-4-yl]-2-fluorophenyl}urea], the IC50 [1] was 0.165 µM, the “PI3Ka IC50” value (PI3Kα (p110α/p85α)) was greater than 10 µM and the IC50 (U87MG tumour cells) was 0.059 µM. It also gave an IC50 (Akt-pS473 in U87MG cells) of 43 nM.

With CN1CC(C)(C)Oc2nc(N3CC4CCC(C3)O4)nc(-c3ccc(NC(=O)Nc4ccncc4)c(F)c3)c2C1=O [Example 83, 1-{2-Fluoro-4-[6,8,8-trimethyl-2-(8-oxa-3-azabicyclo[3.2.1]oct-3-yl)-5-oxo-5,6,7,8-tetrahydro-9-oxa-1,3,6-triazabenzocyclohepten-4-yl]phenyl}-3-pyridin-4-ylurea] the IC50 [1] was 0.02 µM, the “PI3Ka IC50” value (PI3Kα (p110α/p85α)) was 1.46 µM and the IC50 (U87MG tumour cells) was 0.041 µM. It also gave an IC50 (Akt-pS473 in U87MG cells) of 16 nM.

For CCN1CC(C)(C)Oc2nc(N3CCOC[C@@H]3C)nc(-c3ccc(NC(=O)Nc4ccc(N5CCOCC5(C)C)nc4)c(F)c3)c2C1=O [Example 256, 1-[6-(3,3-Dimethylmorpholin-4-yl)pyridin-3-yl]-3-{4-[6-ethyl-8,8-dimethyl-2-((S)-3-methylmorpholin-4-yl)-5-oxo-5,6,7,8-tetrahydro-9-oxa-1,3,6-triazabenzocyclohepten-4-yl]-2-fluorophenyl}urea], the IC50 [1] was 0.196 µM, the “PI3Ka IC50” value (PI3Kα (p110α/p85α)) was 0.199 µM and the IC50 (U87MG tumour cells) was 0.083 µM. It also gave an IC50 (Akt-pS473 in U87MG cells) of 42 nM.

For CCN1CC(C)(C)Oc2nc(N3CC4CCC(C3)O4)nc(-c3ccc(NC(=O)Nc4cncc(OC)n4)c(F)c3)c2C1=O [Example 139, 1-{4-[6-Ethyl-8,8-dimethyl-2-(8-oxa-3-azabicyclo[3.2.1]oct-3-yl)-5-oxo-5,6,7,8-tetrahydro-9-oxa-1,3,6-triazabenzocyclohepten-4-yl]-2-fluorophenyl}-3-(6-methoxypyrazin-2-yl)urea], the IC50 [1] was 0.251 µM, the “PI3Ka IC50” value (PI3Kα (p110α/p85α)) was greater than 10 µM and the IC50 (U87MG tumour cells) was 3.01 µM. The IC50 (Akt-pS473 in U87MG cells) was 721 nM.

For CCN1CC(C)(C)Oc2nc(N3CCOC[C@@H]3C)nc(-c3ccc(NC(=O)Nc4ccc(C)cn4)c(F)c3)c2C1=O [Example 164, 1-{4-[6-Ethyl-8,8-dimethyl-2-((S)-3-methylmorpholin-4-yl)-5-oxo-5,6,7,8-tetrahydro-9-oxa-1,3,6-triazabenzocyclohepten-4-yl]-2-fluorophenyl}-3-(5-methylpyridin-2-yl)urea], the IC50 [1] was 0.085 µM, the “PI3Ka IC50” value (PI3Kα (p110α/p85α)) was 3.8 µM and the IC50 (U87MG tumour cells) was 0.872 µM. It also gave an IC50 (Akt-pS473 in U87MG cells) of 227 nM.

In the case of CCN1CC(C)(C)Oc2nc(N3CCOC[C@@H]3C)nc(-c3ccc(NC(=O)Nc4ccc(N5C[C@@H]6C[C@H]5CO6)nc4)c(F)c3)c2C1=O [Example 252, 1-{4-[6-Ethyl-8,8-dimethyl-2-((S)-3-methylmorpholin-4-yl)-5-oxo-5,6,7,8-tetrahydro-9-oxa-1,3,6-triazabenzocyclohepten-4-yl]-2-fluorophenyl}-3-[(1S,4S)-6-(2-oxa-5-azabicyclo[2.2.1]hept-5-yl)pyridin-3-yl]urea], the IC50 [1] is reported as 0.068 µM, the “PI3Ka IC50” value (PI3Kα (p110α/p85α)) is reported as 1.36 µM and the IC50 (U87MG tumour cells) is reported as 0.282 µM. It also gave an IC50 (Akt-pS473 in U87MG cells) of 48 nM.

With CCN1CC(C)(C)Oc2nc(N3CCOC[C@@H]3C)nc(-c3ccc(NC(=O)Nc4ccc(OC)nc4)c(F)c3)c2C1=O [Example 141, 1-{4-[6-Ethyl-8,8-dimethyl-2-((S)-3-methylmorpholin-4-yl)-5-oxo-5,6,7,8-tetrahydro-9-oxa-1,3,6-triazabenzocyclohepten-4-yl]-2-fluorophenyl}-3-(6-methoxypyridin-3-yl)urea] the IC50 [1] was 0.034 µM, the “PI3Ka IC50” value (PI3Kα (p110α/p85α)) was 0.598 µM and the IC50 (U87MG tumour cells) was 0.094 µM. The IC50 (Akt-pS473 in U87MG cells) was 19 nM.

With CCN1CC(C)(C)Oc2nc(N3CC4CCC(C3)O4)nc(-c3ccc(NC(=O)NCCCO)cc3)c2C1=O [Example 119, 1-{4-[6-Ethyl-8,8-dimethyl-2-(8-oxa-3-azabicyclo[3.2.1]oct-3-yl)-5-oxo-5,6,7,8-tetrahydro-9-oxa-1,3,6-triazabenzocyclohepten-4-yl]phenyl}-3-(3-hydroxypropyl)urea] the IC50 [1] was 0.104 µM, the “PI3Ka IC50” value (PI3Kα (p110α/p85α)) was greater than 10 µM and the IC50 (U87MG tumour cells) was greater than 3 µM. It also gave an IC50 (Akt-pS473 in U87MG cells) of 1060 nM.
